The values below come from US20170095423A1, “Use of selectively moisture-adjusted tabletting material in the production of mechanically stable tablets which contain at least one hydrate-forming active substance and/or adjuvant relevant to the mechanical stability of the tablets, particularly arginine-containing tablets” (Boehringer Ingelheim International GmBH, priority 2012, published 2017).

The data set is described as follows: sorption/desorption (DVS) behaviour: phase transition of the hydrate-forming agent L-arginine. The class given is physicochemical. An excerpt: DVS measurement: measurement of the water absorption of a sample as a function of relative humidity and temperature using a highly sensitive sorption scale.
Phase transition in hydrate-forming active substances or adjuvants: the relative humidity at which the hydrate-forming agent water (particularly water of crystallization) is incorporated and changes from an anhydrate or a lower-valency form into a higher valency hydrate form, or vice versa. This relative humidity is characteristic of the respective hydrate-forming agent; if a hydrate-forming agent incorporates water in several steps, there are several phase transitions in this substance. For example: phase transition for pure L-arginine: 38% r.h./25° C. with incorporation of about 1.5 mol of water per 1 mol of L-arginine; in mixtures comprising L-arginine the phase transition is typically between 38 and 40% r.h./25° C., but in the test formulation described herein by way of example it starts, at latest, at 40% r.h./25° C.
(sorption and desorption cycle; change water content vs. rel. humidity). Tablets produced from tabletting material pre-conditioned at 25° C./45% r.h. were subsequently stored in very different humidity ranges (arrows; for discussion of the cases 1-4 see the description herein).

Where only a bound is given, the exact number is not on record here.

For `N=C(N)NCCC[C@H](N)C(=O)O` [L-arginine], under “25° C.”, the “phase transition (relative humidity at which water of crystallization is incorporated), sorption cycle” value was found to be 38 % r.h and the “phase transition in the desorption cycle (release of water of crystallisation)” value was below 30 % r.h. Besides, the “water incorporated at phase transition” value (38% r.h./25° C.) was “about 1.5 mol of water per 1 mol of L-arginine”. The “relative humidity to ensure the phase transition, sorption cycle” value (at 40° C.) is “about 47 % r.h”.
